From paper PMC7479006, “Effect of high-fat diet on the pharmacokinetics and safety of flumatinib in healthy Chinese subjects” (Cancer Chemotherapy and Pharmacology, 2020)
Where two headings read alike, the source gives them in different places.

Tests used:
[1] = human, in vivo
Procedure: (§1) The subjects were randomized 24 h in advance in one of the two following groups. Group A: at least 10 h after fasting, oral flumatinib administration of 400 mg (2 tablets, day 1, first dose); the washout period was 14 days, half an hour after high-fat diet (timed from the start of diet) oral flumatinib administration of 400 mg (2 tablets, day 15,second dose). Subjects in group B followed the opposite administration sequence from those in group A. In groups A and B, the high-fat diet contained 800 ~ 1000Kcal (about 50% from fat) (meal composition is detailed Table 1).
(§2) Blood samples for pharmacokinetic (PK) evaluation were collected at 0 h before the initiation of dosing (pre-dose), and at 0.5, 1, 1.5, 2, 2.5, 3, 4, 5, 6, 8, 10, 12, 24, 48, 72, and 96 h after dosing. Blood samples were centrifuged at 2000g for 10 min at 4 ℃. Centrifugation was completed within 60 min after sample collection. The plasma was stored at − 70 °C for further analysis. Plasma concentrations of flumatinib and its main metabolites (M1 and M3) were determined using liquid chromatography-mass spectrometry (LC–MS/MS) [20].
(§3) Phoenix WinNonlin Version 7.0 (Pharsight Corporation, Sunnyvale, CA, USA) software was used to calculate the pharmacokinetic parameters (Tmax, Cmax, AUC0–t, AUC0–∞, t1/2, V/F, CL/F) of flumatinib and its main metabolites using a non-compartmental method (NCA module). Linear Up Log Down trapezoidal method was used for AUC calculation. The BE module of WinNonLin was used to analyze AUC0–t, AUC0–∞, and Cmax of flumatinib in fed and fasting states after logarithmic conversion. The treatment group (fasting, high-fat diet), the treatment sequence (A, B), and treatment phase were fixed effects in the model, and the subjects nested in the sequence were random effects. The adjusted mean difference (fasting/high-fat diet) and its 90% confidence interval estimated by the model, were taken as the negative number to obtain the corresponding PK parameter geometric mean ratio (postprandial/fasting), to estimate its 90% confidence interval, and to evaluate the effect of a high-fat diet on the pharmacokinetics of flumatinib.

[2] = in vivo; cited from earlier work
[3] = preclinical studies; tissue drug concentration higher than plasma concentration; cited from earlier work
[4] = rats, oral administration, preclinical studies; cited from earlier work
[5] = parameters: method as in PMID 20703259; conditions: doses in the range of 200–1000 mg; cited from earlier work
[6] = Biopharmaceutics Classification System (BCS) class; format: physicochemical; conditions: based on the BCS Guidance of the year 2000
[7] = Pharmacokinetics of flumatinib, M1 and M3 in plasma after a single oral 400 mg dose of flumatinib mesylate tablets, fasting vs high-fat diet (LC-MS/MS, non-compartmental); conditions: for AUC0-∞ LSGM ratio high-fat diet/fasting (%) (90% CI) / AUC0–t LSGM ratio high-fat diet/fasting (%) (90% CI) / Cmax LSGM ratio high-fat diet/fasting (%) (90% CI): N = 11, single oral 400 mg; for AUC(0-inf) / AUC(0-t) / Cmax / MRT / Tmax / half-life: human, po, 400 mg; for Tmax: Tmax median(range)
Procedure: as §1, §2, §3

[8] = beagles, oral administration, preclinical studies; cited from earlier work
[9] = Safety evaluation (adverse events, NCI CTCAE v4.03) after a single oral 400 mg dose of flumatinib mesylate; format: in vivo, human (healthy Chinese subjects); parameters: TEAE, Incidence rate / TEAE related to the study drug, Incidence rate / SAE related to the study drug, Incidence rate / TEAE related to death, Incidence rate / TEAE related to withdrawal, Incidence rate: unit not given here
Procedure: All subjects who participated in the study were included in the safety analysis. Safety was evaluated by vital signs, physical examination, ECG, laboratory examination, adverse events (AEs), and combined medication. All adverse events that occurred during the trial were classified into mild, moderate and severe levels based on NCI CTCAE v4.03.

[10] = Fasting (N = 11), mean ± SD, single oral 400 mg, listed as Flumatinib
[11] = High-fat diet (N = 12), mean ± SD, single oral 400 mg
[12] = High-fat diet (N = 12), mean ± SD, single oral 400 mg, listed as Flumatinib
[13] = Fasting, the first period (N = 6)
[14] = Fasting, the second period (N = 5)
[15] = High-fat diet, the first period (N = 6)
[16] = High-fat diet, the second period (N = 6)

Cc1ncc(NC(=O)c2ccc(CN3CCNCC3)c(C(F)(F)F)c2)cc1Nc1nccc(-c2cccnc2)n1 [M1, N-desmethyl flumatinib]
AUC0–t [1]: 231 ± 101 ng·h/mL | Cmax [1]: 54.7 ± 25.5 ng/mL | Increase of AUC0–t after high-fat diet over fasted state ([1]; po, 400 mg): 1.6 fold | Increase of AUC0–∞ after high-fat diet over fasted state ([1]; po, 400 mg): 1.6 fold | Increase of Cmax after high-fat diet over fasted state ([1]; po, 400 mg): 1.9 fold | Metabolite in plasma relative to the parent drug in plasma [2]: approximately 10%

Cc1ncc(NC(=O)c2ccc(CN3CCN(C)CC3)c(C(F)(F)F)c2)cc1Nc1nccc(-c2cccnc2)n1 [flumatinib]
Tissue distribution [3]: widely distributed in tissues | Time to maximum blood concentration [4]: about 5 h | Dose relation of Cmax and AUC0–t [5]: linearly related to doses | BCS class [6]: BCS Class III | CL/F ([7]; Fasting (N = 11), mean ± SD, single oral 400 mg): 399 ± 229 L/h | CL/F [7, 10]: 661 ± 380 L/h | V/F [7, 10]: 11,700 ± 5130 L | CL/F [7, 11]: 661 ± 380 L/h | V/F [7, 11]: 11700 ± 5130 L | CL/F [7, 12]: 399 ± 229 L/h | V/F [7, 12]: 8470 ± 4130 L | AUC0-∞ LSGM ratio high-fat diet/fasting (%) (90% CI) [7]: 166.87% | AUC0–t LSGM ratio high-fat diet/fasting (%) (90% CI) [7]: 167.43% | Cmax LSGM ratio high-fat diet/fasting (%) (90% CI) [7]: 281.65% | AUC0-∞ LSGM ratio high-fat diet/fasting (%) (90% CI) ([7]; listed as Flumatinib): 167 (143, 194) % | AUC0–t LSGM ratio high-fat diet/fasting (%) (90% CI) ([7]; listed as Flumatinib): 167 (144, 195) % | Cmax LSGM ratio high-fat diet/fasting (%) (90% CI) ([7]; listed as Flumatinib): 282 (226, 351) % | AUC(0-inf) ([7]; plasma, AUC0-∞ (least-square geometric mean), Fasting (N = 11), food-effect analysis, single oral 400 mg): 710 ng·h/mL | AUC(0-inf) ([7]; plasma, AUC0-∞ (least-square geometric mean), High-fat diet (N = 11), food-effect analysis, single oral 400 mg): 1180 ng·h/mL | AUC(0-inf) ([7]; plasma, AUC0-∞, Fasting (N = 11), mean ± SD, single oral 400 mg): 847 ± 572 ng·h/mL | AUC(0-inf) ([7]; plasma, AUC0-∞, High-fat diet (N = 12), mean ± SD, single oral 400 mg): 1280 ± 586 ng·h/mL | AUC(0-t) ([7]; plasma, AUC0–t (least-square geometric mean), Fasting (N = 11), food-effect analysis, single oral 400 mg): 696 ng·h/mL | AUC(0-t) ([7]; plasma, AUC0–t (least-square geometric mean), High-fat diet (N = 11), food-effect analysis, single oral 400 mg): 1170 ng·h/mL | AUC(0-t) ([7]; plasma, AUC0–t, Fasting (N = 11), mean ± SD, single oral 400 mg): 832 ± 566 ng·h/mL | AUC(0-t) ([7]; plasma, AUC0–t, High-fat diet (N = 12), mean ± SD, single oral 400 mg): 1260 ± 582 ng·h/mL | Cmax ([7]; plasma, Cmax (least-square geometric mean), Fasting (N = 11), food-effect analysis, single oral 400 mg): 43.7 ng/mL | Cmax ([7]; plasma, Cmax (least-square geometric mean), High-fat diet (N = 11), food-effect analysis, single oral 400 mg): 123 ng/mL | Cmax ([7]; plasma, Cmax, Fasting (N = 11), mean ± SD, single oral 400 mg): 50.7 ± 32.5 ng/mL | Cmax ([7]; plasma, Cmax, High-fat diet (N = 12), mean ± SD, single oral 400 mg): 132 ± 54.5 ng/mL | MRT ([7]; plasma, Fasting (N = 11), mean ± SD, single oral 400 mg): 17.2 ± 3.66 h | MRT ([7]; plasma, High-fat diet (N = 12), mean ± SD, single oral 400 mg): 19.2 ± 3.37 h | Tmax ([7]; plasma, Fasting (N = 11), single oral 400 mg): 2.5 h | Tmax ([7]; plasma, High-fat diet (N = 12), single oral 400 mg): 3 h | half-life ([7]; plasma, t1/2, Fasting (N = 11), mean ± SD, single oral 400 mg): 13.3 ± 2.52 h | half-life ([7]; plasma, t1/2, High-fat diet (N = 12), mean ± SD, single oral 400 mg): 15.5 ± 4.67 h | Increase in the exposure when taken with food ([7]; single oral 400 mg): 67% | Increase of AUC0–∞ after high-fat diet over fasted state ([7]; single oral 400 mg, plasma): 1.6 fold | Increase of Cmax after high-fat diet over fasted state ([7]; single oral 400 mg, plasma): nearly tripled | Time to maximum blood concentration [8]: about 5 h | SAE related to the study drug, Incidence rate [9, 13]: 0.0 | SAE related to the study drug, Number [9, 13]: 0 | SAE related to the study drug, Time [9, 13]: 0 | TEAE related to death, Incidence rate [9, 13]: 0.0 | TEAE related to death, Number [9, 13]: 0 | TEAE related to death, Time [9, 13]: 0 | TEAE related to the study drug, Incidence rate [9, 13]: 83.3 | TEAE related to the study drug, Number [9, 13]: 5 | TEAE related to the study drug, Time [9, 13]: 11 | TEAE related to withdrawal, Incidence rate [9, 13]: 0.0 | TEAE related to withdrawal, Number [9, 13]: 0 | TEAE related to withdrawal, Time [9, 13]: 0 | TEAE, Incidence rate [9, 13]: 100.0 | TEAE, Number [9, 13]: 6 | TEAE, Time [9, 13]: 14 | SAE related to the study drug, Incidence rate [9, 14]: 0.0 | SAE related to the study drug, Number [9, 14]: 0 | SAE related to the study drug, Time [9, 14]: 0 | TEAE related to death, Incidence rate [9, 14]: 0.0 | TEAE related to death, Number [9, 14]: 0 | TEAE related to death, Time [9, 14]: 0 | TEAE related to the study drug, Incidence rate [9, 14]: 60.0 | TEAE related to the study drug, Number [9, 14]: 3 | TEAE related to the study drug, Time [9, 14]: 4 | TEAE related to withdrawal, Incidence rate [9, 14]: 0.0 | TEAE related to withdrawal, Number [9, 14]: 0 | TEAE related to withdrawal, Time [9, 14]: 0 | TEAE, Incidence rate [9, 14]: 60.0 | TEAE, Number [9, 14]: 3 | TEAE, Time [9, 14]: 5 | SAE related to the study drug, Incidence rate ([9]; Fasting, total (N = 11)): 0.0 | SAE related to the study drug, Number ([9]; Fasting, total (N = 11)): 0 | SAE related to the study drug, Time ([9]; Fasting, total (N = 11)): 0 | TEAE related to death, Incidence rate ([9]; Fasting, total (N = 11)): 0.0 | TEAE related to death, Number ([9]; Fasting, total (N = 11)): 0 | TEAE related to death, Time ([9]; Fasting, total (N = 11)): 0 | TEAE related to the study drug, Incidence rate ([9]; Fasting, total (N = 11)): 72.7 | TEAE related to the study drug, Time ([9]; Fasting, total (N = 11)): 15 | TEAE related to withdrawal, Incidence rate ([9]; Fasting, total (N = 11)): 0.0 | TEAE related to withdrawal, Number ([9]; Fasting, total (N = 11)): 0 | TEAE related to withdrawal, Time ([9]; Fasting, total (N = 11)): 0 | TEAE, Incidence rate ([9]; Fasting, total (N = 11)): 81.8 | TEAE, Time ([9]; Fasting, total (N = 11)): 19 | SAE related to the study drug, Incidence rate [9, 15]: 0.0 | SAE related to the study drug, Number [9, 15]: 0 | SAE related to the study drug, Time [9, 15]: 0 | TEAE related to death, Incidence rate [9, 15]: 0.0 | TEAE related to death, Number [9, 15]: 0 | TEAE related to death, Time [9, 15]: 0 | TEAE related to the study drug, Incidence rate [9, 15]: 50.0 | TEAE related to the study drug, Number [9, 15]: 3 | TEAE related to the study drug, Time [9, 15]: 6 | TEAE related to withdrawal, Incidence rate [9, 15]: 16.7 | TEAE related to withdrawal, Number [9, 15]: 1 | TEAE related to withdrawal, Time [9, 15]: 1 | TEAE, Incidence rate [9, 15]: 100.0 | TEAE, Number [9, 15]: 6 | TEAE, Time [9, 15]: 18 | SAE related to the study drug, Incidence rate [9, 16]: 0.0 | SAE related to the study drug, Number [9, 16]: 0 | SAE related to the study drug, Time [9, 16]: 0 | TEAE related to death, Incidence rate [9, 16]: 0.0 | TEAE related to death, Number [9, 16]: 0 | TEAE related to death, Time [9, 16]: 0 | TEAE related to the study drug, Incidence rate [9, 16]: 66.7 | TEAE related to the study drug, Number [9, 16]: 4 | TEAE related to the study drug, Time [9, 16]: 6 | TEAE related to withdrawal, Incidence rate [9, 16]: 0.0 | TEAE related to withdrawal, Number [9, 16]: 0 | TEAE related to withdrawal, Time [9, 16]: 0 | TEAE, Incidence rate [9, 16]: 66.7 | TEAE, Number [9, 16]: 4 | TEAE, Time [9, 16]: 7 | SAE related to the study drug, Incidence rate ([9]; High-fat diet, total (N = 12)): 0.0 | SAE related to the study drug, Number ([9]; High-fat diet, total (N = 12)): 0 | SAE related to the study drug, Time ([9]; High-fat diet, total (N = 12)): 0 | TEAE related to death, Incidence rate ([9]; High-fat diet, total (N = 12)): 0.0 | TEAE related to death, Number ([9]; High-fat diet, total (N = 12)): 0 | TEAE related to death, Time ([9]; High-fat diet, total (N = 12)): 0 | TEAE related to the study drug, Incidence rate ([9]; High-fat diet, total (N = 12)): 58.3 | TEAE related to the study drug, Time ([9]; High-fat diet, total (N = 12)): 12 | TEAE related to withdrawal, Incidence rate ([9]; High-fat diet, total (N = 12)): 8.3 | TEAE related to withdrawal, Number ([9]; High-fat diet, total (N = 12)): 1 | TEAE related to withdrawal, Time ([9]; High-fat diet, total (N = 12)): 1 | TEAE, Incidence rate ([9]; High-fat diet, total (N = 12)): 83.3 | TEAE, Time ([9]; High-fat diet, total (N = 12)): 25 | TEAE incidence ([9]; fasting group): 81.8% | TEAE related to the study drug, incidence ([9]; fasting group): 72.7% | TEAE incidence ([9]; high-fat diet group): 83.3% | TEAE related to the study drug, incidence ([9]; high-fat diet group): 58.3% | Safety and tolerability ([9]; single oral dose of 400 mg, fasting or high-fat diet): safe and well tolerated
